Results as given in US20260347373A1, “HETEROCYCLIC COMPOUNDS, COMPOSITIONS THEREOF, AND METHODS OF TREATMENT THEREWITH” (BeOne Medicines I GmbH, priority 2023, published 2026).
Where two headings read alike, the source gives them in different places.

Legend:
WT KRAS = WT KRAS (Homo sapiens, UniProt P01116); assay: KRAS WT Probe Displacement Assay (TR-FRET, GDP-loaded); type: binding
Description: (§1) The synthetic routes of probe 1 and 2, which have been disclosed in PCT/CN2022/070676, are hereby incorporated herein.

KRAS G12D = KRAS G12D (Homo sapiens, UniProt P01116, G12D); assay: KRAS G12D Probe Displacement Assay (TR-FRET, GDP-loaded); type: binding
Sequence of KRAS G12D (P01116 1-188 isoform P01116-2 G12D): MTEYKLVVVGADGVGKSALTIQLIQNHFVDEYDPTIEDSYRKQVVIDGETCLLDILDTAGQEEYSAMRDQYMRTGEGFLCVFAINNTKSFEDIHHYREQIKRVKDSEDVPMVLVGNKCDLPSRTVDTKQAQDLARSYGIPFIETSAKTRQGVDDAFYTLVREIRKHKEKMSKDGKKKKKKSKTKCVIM
Description: as §1

[1] = KRAS WT, read-out: KRAS^WT Probe Displacement Assay IC50
[2] = KRAS G12D, read-out: KRAS^G12D Probe Displacement Assay IC50

Sequence of WT KRAS (P01116 1-188 isoform P01116-2): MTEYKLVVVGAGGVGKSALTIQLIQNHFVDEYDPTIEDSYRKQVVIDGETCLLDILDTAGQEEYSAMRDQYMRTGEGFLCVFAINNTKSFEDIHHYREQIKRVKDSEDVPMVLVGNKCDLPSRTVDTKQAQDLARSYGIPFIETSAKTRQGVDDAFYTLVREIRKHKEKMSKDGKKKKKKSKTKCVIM

Cc1cc(N)cc(-c2nc3c4c(nc(OCC5(CN6CCC(C#N)C6)CC5)nc4c2F)N2C[C@H]4CC[C@H](N4)[C@H]2CCO3)c1C(F)(F)F (stereo partly drawn) [Example 166, 1-((1-((((6aR,7S,10R)-2-(5-amino-3-methyl-2-(trifluoromethyl)phenyl)-1-fluoro-5,6,6a,7,8,9,10,11-octahydro-4-oxa-3,11a,12,14,15-pentaaza-7,10-methanocyclohepta[4,5]cycloocta[1,2,3-de]naphthalen-13-yl)oxy)methyl)cyclopropyl)methyl)pyrrolidine-3-carbonitrile]
IC50 (WT KRAS; [1]): 3 to 1000 nM | IC50 (KRAS G12D; [2]): < 0.3 nM

Cc1cc(N)cc(-c2nc3c4c(nc(OCC5(C)CC(F)CN(C6CCOCC6)C5)nc4c2F)N2C[C@H]4CC[C@H](N4)[C@H]2CCO3)c1C(F)(F)F (single isomer, unassigned) [Example 232]
IC50 (WT KRAS; [1]): 0.3 to 3 nM | IC50 (KRAS G12D; [2]): < 0.3 nM

Cc1cc(N)cc(-c2nc3c4c(nc(OC[C@]5(O)COC[C@H]5N(C)C)nc4c2F)N2C[C@H]4CC[C@H](N4)[C@H]2CCO3)c1C(F)(F)F [Example 131, (3R,4R)-3-((((6aR,7S,10R)-2-(5-amino-3-methyl-2-(trifluoromethyl)phenyl)-1-fluoro-5,6,6a,7,8,9,10,11-octahydro-4-oxa-3,11a,12,14,15-pentaaza-7,10-methanocyclohepta[4,5]cycloocta [1,2,3-de]naphthalen-13-yl)oxy)methyl)-4-(dimethylamino)tetrahydrofuran-3-ol]
IC50 (WT KRAS; [1]): 3 to 1000 nM | IC50 (KRAS G12D; [2]): 0.3 to 3 nM

Cc1cc(N)cc(-c2nc3c4c(nc(OCC5(C6CCCN6C)CC5)nc4c2F)N2C[C@H]4CC[C@H](N4)[C@H]2CCO3)c1C(F)(F)F (mixture of isomers) [Example 63, 3-((6aR,7S,10R)-1-fluoro-13-((1-(1-methylpyrrolidin-2-yl)cyclopropyl)methoxy)-5,6,6a,7,8,9,10,11-octahydro-4-oxa-3,11a,12,14,15-pentaaza-7,10-methanocyclohepta[4,5]cycloocta[1,2,3-de]naphthalen-2-yl)-5-methyl-4-(trifluoromethyl)aniline]
IC50 (WT KRAS; [1]): 3 to 1000 nM | IC50 (KRAS G12D; [2]): < 0.3 nM

CO[C@H]1CCN(CC2(COc3nc4c5c(nc(-c6cc(N)cc(C)c6C(F)(F)F)c(F)c5n3)OCC[C@@H]3[C@@H]5CC[C@H](CN43)N5)CC2)C1 [Example 88, 3-((6aR,7S,10R)-1-fluoro-13-((1-(((S)-3-methoxypyrrolidin-1-yl)methyl)cyclopropyl)methoxy)-5,6,6a,7,8,9,10,11-octahydro-4-oxa-3,11a,12,14,15-pentaaza-7,10-methanocyclohepta [4,5]cycloocta [1,2,3-de]naphthalen-2-yl)-5-methyl-4-(trifluoromethyl) aniline]
IC50 (WT KRAS; KRAS^WT Probe Displacement Assay IC50, KRAS WT): 3 to 1000 nM | IC50 (KRAS G12D; KRAS^G12D Probe Displacement Assay IC50, KRAS G12D): < 0.3 nM

Cc1cc(N)cc(-c2nc3c4c(nc(OCC5(CN6CCCC6CO)CC5)nc4c2F)N2C[C@H]4CC[C@H](N4)[C@H]2CCO3)c1C(F)(F)F (single isomer, unassigned) [Example 124]
IC50 (WT KRAS; [1]): 3 to 1000 nM | IC50 (KRAS G12D; [2]): 0.3 to 3 nM

Cc1cc(N)cc(-c2nc3c4c(nc(OCC5(CN6CCC[C@H]6C)CC5)nc4c2F)N2C[C@H]4CC[C@H](N4)[C@H]2CCO3)c1C(F)(F)F [Example 122, 3-((6aR,7S,10R)-1-fluoro-13-((1-(((R)-2-methylpyrrolidin-1-yl)methyl)cyclopropyl)methoxy)-5,6,6a,7,8,9, 10,11-octahydro-4-oxa-3,11a,12,14,15-pentaaza-7,10-methanocyclohepta [4,5]cycloocta [1,2,3-de]naphthalen-2-yl)-5-methyl-4-(trifluoromethyl)aniline]
IC50 (WT KRAS; [1]): 3 to 1000 nM | IC50 (KRAS G12D; [2]): < 0.3 nM

Cc1cc(N)cc(-c2nc3c4c(nc(OCC5(CN6CCOC7(CC7)C6)CC5)nc4c2F)N2C[C@H]4CC[C@H](N4)[C@H]2CCO3)c1C(F)(F)F [Example 120, 3-((6aR,7S,10R)-13-((1-((4-oxa-7-azaspiro[2.5]octan-7-yl)methyl)cyclopropyl)methoxy)-1-fluoro-5,6,6a,7,8,9,10,11-octahydro-4-oxa-3,11a,12,14,15-pentaaza[7,10]methanocyclohepta [4,5]cycloocta[1,2,3-de]naphthalen-2-yl)-5-methyl-4-(trifluoromethyl)aniline]
IC50 (WT KRAS; [1]): 0.3 to 3 nM | IC50 (KRAS G12D; [2]): < 0.3 nM
